Measurements from US20040037843A1, “Inducing cellular immune responses to prostate cancer antigens using peptide and nucleic acid compositions” (priority 2003, published 2004).

Key:
Experiment in all cases: HLA class I binding assay, purified HLA, inhibition of 125I-labelled probe peptide
HLA-A*0202 = HLA-A*0202 (Homo sapiens, UniProt P04439, D140Y/D185E/D98H/E176V/E277Q/G131W/G231S/I119L/I121R/I166T/I218V/L180W/L300P/L318F/N151K/N90K/P208A/P217A/Q67R/Q86G/Q94H/R138H/R169H/T345S); conditions: A2 supermotif cross-reactive binding data
HLA-A*6802 = HLA-A*6802 (Homo sapiens, UniProt P04439, A269V/D140Y/D185E/E176V/E277Q/E87N/F33Y/G231S/I121R/I166T/I218V/L180W/L300P/L318F/N151K/P208A/P217A/Q86R/R138H/R169H/S129P/T345S/V36M); conditions: A2 supermotif cross-reactive binding data; read-out: A*6802 nM
HLA-A*0206 = HLA-A*0206 (Homo sapiens, UniProt P04439, D140Y/D185E/D98H/E176V/E277Q/F33Y/G131W/G231S/I119V/I121R/I166T/I218V/L300P/L318F/N151K/N90K/P208A/P217A/Q86G/Q94H/R138H/R169H/T345S); conditions: A*[…], A2 supermotif cross-reactive binding data
HLA-A*0201 = HLA-A*0201 (Homo sapiens, UniProt P04439, D140Y/D185E/D98H/E176V/E277Q/G131W/G231S/I119V/I121R/I166T/I218V/L300P/L318F/N151K/N90K/P208A/P217A/Q86G/Q94H/R138H/R169H/T345S); conditions: A*[…], A2 supermotif cross-reactive binding data
HLA-A*0203 = HLA-A*0203 (Homo sapiens, UniProt P04439, A173T/D140Y/D185E/D98H/E277Q/G131W/G231S/I119V/I121R/I166T/I218V/L180W/L300P/L318F/N151K/N90K/P208A/P217A/Q86G/Q94H/R138H/R169H/T345S); conditions: A*[…], A2 supermotif cross-reactive binding data

Compound	IC50 (HLA-A*0202) [nM]	IC50 (HLA-A*6802) [nM]	IC50 (HLA-A*0206) [nM]	IC50 (HLA-A*0201) [nM]	IC50 (HLA-A*0203) [nM]
CSCC[C@H](NC(=O)[C@H](CC(=O)O)NC(=O)[C@H](CC(N)=O)NC(=O)[C@H](CO)NC(=O)[C@H](CC(C)C)NC(=O)[C@H](CC(C)C)NC(=O)[C@@H](N)Cc1c[nH]cn1)C(=O)N[C@@H](CS)C(=O)N[C@H](C(=O)O)C(C)C [Peptide 1418.20]	102	> 10000	176	119	278
CSCC[C@H](NC(=O)[C@H](Cc1ccccc1)NC(=O)[C@H](CCC(=O)O)NC(=O)[C@@H](NC(=O)[C@@H](NC(=O)[C@@H](N)CCCCN)C(C)C)[C@@H](C)O)C(=O)N[C@@H](CC(C)C)C(=O)N[C@@H](CS)C(=O)N[C@H](C(=O)O)C(C)C [Peptide 1418.21]	27	6670	34	53	31
CC[C@H](C)[C@H](NC(=O)[C@H](CC(=O)O)NC(=O)[C@H](Cc1ccccc1)NC(=O)[C@@H](NC(=O)[C@H](C)N)[C@@H](C)O)C(=O)N[C@@H](CCC(=O)O)C(=O)N[C@@H](CO)C(=O)N[C@@H](CCCCN)C(=O)N[C@H](C(=O)O)C(C)C [Peptide 1418.30]	27	258	82	238	44
CC(C)C[C@H](NC(=O)[C@H](CO)NC(=O)[C@@H](NC(=O)[C@H](CS)NC(=O)[C@H](CCC(N)=O)NC(=O)[C@H](CC(C)C)NC(=O)[C@@H](N)CO)C(C)C)C(=O)N[C@@H](Cc1c[nH]cn1)C(=O)N[C@@H](CC(C)C)C(=O)N[C@H](C(=O)O)C(C)C [Peptide 1418.52]	6.3	205	5.2	13	2.8
CSCC[C@H](NC(=O)[C@H](CC(=O)O)NC(=O)[C@H](CC(N)=O)NC(=O)[C@H](CO)NC(=O)[C@H](CC(C)C)NC(=O)[C@H](CC(C)C)NC(=O)[C@@H](N)Cc1c[nH]cn1)C(=O)N[C@@H](CS)C(=O)N[C@@H](C)C(=O)N[C@@H](CCCNC(=N)N)C(=O)N[C@H](C(=O)O)C(C)C [Peptide 1418.67]	1.3	860	37	26	5.3
CC(C)C[C@H](NC(=O)[C@H](CC(C)C)NC(=O)[C@H](Cc1c[nH]cn1)NC(=O)[C@H](CC(C)C)NC(=O)[C@H](CO)NC(=O)[C@@H](NC(=O)[C@H](CS)NC(=O)[C@H](CCC(N)=O)NC(=O)[C@H](CC(C)C)NC(=O)[C@@H](N)CO)C(C)C)C(=O)O [Peptide 1419.66]	4.9	5000	446	263	71
H-SLHLLSNDMCV-OH [Peptide 1418.66]	0.8	2160	2310	8.6	10
